Data taken from patent publication US10829486B2, “Isoxazole derivatives as FXR agonists and methods of use thereof” (ENANTA PHARMACEUTICALS, INC., priority 2018, dated 2020).

Molecular target: T1, human FXR (NR1H4) (Homo sapiens, UniProt Q96RI1)
T1 construct: host or cells: CHO (Chinese hamster ovary) reporter cells
T1 sequence (Q96RI1 1-486): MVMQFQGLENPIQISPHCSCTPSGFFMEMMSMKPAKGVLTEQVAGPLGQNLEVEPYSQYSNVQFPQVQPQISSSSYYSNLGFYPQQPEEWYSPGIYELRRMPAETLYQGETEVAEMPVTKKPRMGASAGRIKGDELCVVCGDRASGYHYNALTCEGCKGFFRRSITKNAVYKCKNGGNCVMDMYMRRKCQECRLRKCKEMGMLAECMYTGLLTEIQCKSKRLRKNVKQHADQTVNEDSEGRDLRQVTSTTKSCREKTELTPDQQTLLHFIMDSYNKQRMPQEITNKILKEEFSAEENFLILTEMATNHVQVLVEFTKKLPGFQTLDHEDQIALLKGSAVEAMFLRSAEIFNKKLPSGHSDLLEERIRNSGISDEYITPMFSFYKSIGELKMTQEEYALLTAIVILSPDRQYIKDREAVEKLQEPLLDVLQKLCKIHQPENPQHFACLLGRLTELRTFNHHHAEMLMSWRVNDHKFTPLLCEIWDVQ
Test: Human FXR (NR1H4) Assay (Gal4 promoter driven luciferase reporter assay in CHO cells)
Assay type: cell-based
Settings: for EC50: CHO cells expressing human NR1H4, 22 hours incubation, potency ranges; for Emax: efficacy normalized to CDCA set as 100%, CHO cells expressing human NR1H4
Excerpt: Determination of a ligand mediated Gal4 promoter driven transactivati on to quantify ligand binding mediated activation of FXR. FXR Reporter Assay kit purchased from Indigo Bioscience (Catalogue number: IB00601) to determine the potency and efficacy of compound developed by Enanta that can induce FXR activation. The principle application of this reporter assay system is to quantify functional activity of human FXR. The assay utilizes non-human mammalian cells, CHO (Chinese hamster ovary) cells engineered to express human NR1H4 protein (referred to as FXR). Reporter cells also incorporate the cDNA encoding beetle luciferase which catalyzes the substrates and yields photon emission. Luminescence intensity of the reaction is quantified using a plate-reading luminometer, Envision. Reporter Cells include the luciferase reporter gene functionally linked to an FXR responsive promoter. Thus, quantifying changes in luciferase expression in the treated reporter cells provides a sensitive surrogate measure of the changes in FXR activity. EC50 and efficacy (normalize to CDCA set as 100%) is determined by XLFit. The assay is according to the manufacturer's instructions. In brief, the assay was performed in white, 96 well plates using final volume of 100 ul containing cells with different doses of compounds. Retrieve Reporter Cells from −80° C. storage. Perform a rapid thaw of the frozen cells by transferring a 10 ml volume of 37° C. cell recovery medium into the tube of frozen cells. Recap the tube of Reporter Cells and immediately place it in a 37° C. water bath for 5-10 minutes. Retrieve the tube of Reporter Cell Suspension from the water bath. Sanitize the outside surface of the tube with a 70% alcohol swab, and then transfer it into the cell culture hood. Dispense 90 μl of cell suspension into each well of the 96-well Assay Plate. Transfer the plate into 37° C. incubator, allowing the cells adherent to the bottom of the well. Dilute compounds in Dilution Plate (DP), and administrate to cells at Assay Plate (AP). DMSO content of the samples was kept at 0.2%. Cells were incubated for additional 22 hours before luciferase activities were measured. Thirty minutes before intending to quantify FXR activity, remove Detection Substrate and Detection Buffer from the refrigerator and place them in a low-light area so that they may equilibrate to room temperature. Remove the plate's lid and discard all media contents by ejecting it into an appropriate waste container. Gently tap the inverted plate onto a clean absorbent paper towel to remove residual droplets. Cells will remain tightly adhered to well bottoms. Add 100 μl of luciferase detection reagent to each well of the assay plate. Allow the assay plate to rest at room temperature for at least 5 minutes following the addition of LDR. Set the instrument (Envision) to perform a single 5 second “plate shake” prior to reading the first assay well. Read time may be 0.5 second (500 mSec) per well. EC50 and Efficacy (normalize to CDCA set as 100%) is determined by XLFit.
The efficacy was normalized to CDCA set as 100%. (A=EC50<0.1 μM; B=0.1 μM<EC50<1.0 μM; C=1.0 μM<EC50<10 μM; D=EC50>10 μM).

SMILES | EC50 | Emax
CC(C)Oc1cc(C(=O)O)cc2sc(N(C)[C@H]3CC[C@@H](OCc4c(-c5c(Cl)cccc5Cl)noc4C4CC4)CC3)nc12 [Example 15, 2-(((1s,4s)-4-((5-cyclopropyl-3-(2,6-dichlorophenyl)isoxazol-4-yl)methoxy)cyclohexyl)(methyl)amino)-4-isopropoxybenzo[d]thiazole-6-carboxylic acid] | < 100 nM | 65%
CC(C)Oc1cc(C(=O)NS(=O)(=O)C2CC2)cc2sc(N[C@@H]3CCC(OCc4c(-c5c(Cl)cccc5Cl)noc4C4CC4)C3)nc12 (stereo partly drawn) [Example 20] | 100 to 1000 nM | 111%
CC(C)Oc1cc(C(=O)O)cc2sc(N(C)[C@H]3CC[C@H](OCc4c(-c5c(Cl)cccc5Cl)noc4C4CC4)CC3)nc12 [Example 5] | < 100 nM | 85%
CC(C)Oc1cc(C(=O)O)cc2sc(N[C@H]3CC[C@@H](OCc4c(-c5ccccc5OC(F)(F)F)noc4C4CC4)CC3)nc12 [Example 17] | < 100 nM | 91%
O=C(O)c1cc(F)c2nc(N[C@@H]3CC[C@H](OCc4c(-c5c(Cl)cccc5Cl)noc4C4CC4)C3)sc2c1 [Example 9] | < 100 nM | 104%
O=C(O)c1ccc2nc(N[C@@H]3CCC(OCc4c(-c5c(Cl)cccc5Cl)noc4C4CC4)C3)sc2c1 (stereo partly drawn) [Example 19] | 100 to 1000 nM | 116%
O=C(O)c1cc(F)c2nc(N[C@H]3CC[C@@H](OCc4c(-c5c(Cl)cccc5Cl)noc4C4CC4)CC3)sc2c1 [Example 16] | 100 to 1000 nM | 24%
CC(C)Oc1cc(C(=O)O)cc2sc(N[C@@H]3CC[C@H](OCc4c(-c5ccccc5OC(F)(F)F)noc4C4CC4)C3)nc12 [Example 11] | < 100 nM | 92%
O=C(O)c1ccc2nc(N[C@H]3CC[C@@H](OCc4c(-c5c(Cl)cccc5Cl)noc4C4CC4)CC3)sc2c1 [Example 18] | < 100 nM | 52%
CC(C)Oc1cc(C(=O)O)cc2sc(N(C)[C@@H]3CC[C@H](OCc4c(-c5ccccc5OC(F)(F)F)noc4C4CC4)C3)nc12 [Example 6] | < 100 nM | 67%
CC(C)Oc1cc(C(=O)O)cc2sc(N[C@@H]3CC[C@H](OCc4c(-c5c(Cl)cccc5Cl)noc4C4CC4)C3)nc12 [Example 8] | < 100 nM | 99%
CN(c1ccc2cc(C(=O)O)ccc2n1)[C@@H]1CC[C@H](OCc2c(-c3ccccc3OC(F)(F)F)noc2C2CC2)C1 [Example 7] | < 100 nM | 57%
CC(C)Oc1cc(C(=O)O)cc2sc(N[C@H]3CC[C@@H](OCc4c(-c5c(Cl)cccc5Cl)noc4C4CC4)CC3)nc12 [Example 14, 2-(((1s,4s)-4-((5-cyclopropyl-3-(2,6-dichlorophenyl)isoxazol-4-yl)methoxy)cyclohexyl)amino)-4-isopropoxybenzo[d]thiazole-6-carboxylic acid] | < 100 nM | 84%
CC(C)Oc1cc(C(=O)O)cc2sc(N(C)[C@H]3CC[C@@H](OCc4c(-c5c(Cl)cccc5Cl)noc4C4CC4)C3)nc12 [Example 2] | < 100 nM | 75%
CC(C)Oc1cc(C(=O)O)cc2sc(N(C)[C@H]3CC[C@H](OCc4c(-c5c(Cl)cccc5Cl)noc4C4CC4)C3)nc12 [Example 3] | 100 to 1000 nM | 58%
CC(C)Oc1cc(C(=O)O)cc2sc(N(C)[C@@H]3CC[C@@H](OCc4c(-c5c(Cl)cccc5Cl)noc4C4CC4)C3)nc12 [Example 4] | 100 to 1000 nM | 73%
O=C(O)c1cc(F)c2nc(N[C@@H]3CCC(OCc4c(-c5ccccc5OC(F)(F)F)noc4C4CC4)C3)sc2c1 (stereo partly drawn) [Example 10] | < 100 nM | 81%
CC(C)Oc1cc(C(=O)O)cc2sc(N(C)[C@@H]3CC[C@H](OCc4c(-c5c(Cl)cccc5Cl)noc4C4CC4)C3)nc12 [Example 1] | < 100 nM | 96%
